What was measured:
α-syn-tg mice [1] = experiment: Neurodegeneration analysis (TH-positive striatal fibers); type: in vivo; details: 5 mg/kg IP daily for four weeks
Method: (§1) Five-month-old non-tg and α-syn-tg female mice were injected intra-peritoneally (IP) with either vehicle (40% captisol) or 5 mg/kg of hypoestoxide daily for four weeks. The right hemibrains were post-fixed in phosphate-buffered 4% PFA at 4° C. for neuropathological analysis, while the left hemibrains were snap-frozen and stored at −70° C. for subsequent protein and mRNA analysis.
(§2) Blind-coded sagittal brain sections were incubated with primary antibodies at 4° C. for overnight. The next day, sections were incubated with either biotinylated- or FITC-conjugated secondary antibodies and detected with avid in D-HRP HRP (ABC elite, Vector Laboratories, Burlingame, Calif.) and with Tyramide Signal Amplification Direct system (PerkinElmer, Waltham, Mass.), respectively.
(§3) To determine the neuroinflammation, neurodegeneration, accumulation of α-synuclein, and NF-κB activation, brain sections were stained with Iba-1, GFAP, TNFα, IL-1β, IL6, human α-synuclein, NF-κB, and phosphorylated-NF-κB antibodies, respectively. Sections were imaged by Olympus BX41 microscope. All immunoreactivity levels were determined by optical density analysis using Image Quant 1.43 program (NIH) except the immunoreactivity of Iba-1. The cell numbers of Iba-1-positive cells were determined per field (230 μm×184 μm) of each animal based on cell body recognition using Image Quant 1.43 program (NIH). […]

α-synuclein [2] = experiment: Immunoblot analysis of α-synuclein in SDS-soluble and SDS-insoluble brain homogenate fractions; type: in vivo; details: brain homogenates of α-syn-tg mice; 5 mg/kg IP daily for four weeks
Method: as §1
(§4) Brain homogenates were prepared in the lysis buffer to separate SDS-soluble and SDS-insoluble fractions. Chemiluminescence detection and analysis were performed using Versadoc XL imaging apparatus and Quantity One (Bio-rad, Hercules, Calif.).
FIGS. 3F-3G show the results of a biochemical analysis. Brain homogenates were separated into SDS-soluble and SDS-insoluble factions, and analyzed by immunoblot analysis. The levels of α-synuclein in SDS-soluble fractions from α-syn tg mice were not affected by HE administration. […] A positive interactive effect of HE treatment on the level of SDS-insoluble α-synuclein (Finteraction (1, 16)=8.68, p=0.0095) was confirmed by two-way ANOVA.

NF-κB [3] = experiment: Western blot analysis of NF-κB in cytosolic and nuclear fractions of cortex homogenates; type: in vivo, mice; details: 5 mg/kg IP daily for four weeks
Method: as §1, §4
Biochemical analysis using brain homogenates from the cortex of non-tg and α-syn-tg mice was performed. Brain homogenates were separated into cytosolic and nuclear fractions by centrifugation, and each fraction was analyzed by western blot analysis. Total levels of NF-κB were not altered by HE administration in non-tg and α-syn-tg mice. […] A positive interactive effect of HE treatment on the level of phosphorylated-NF-κB (Finteraction (1, 16)=11.55, p=0.0037) was confirmed by two-way ANOVA.

α-syn-tg mice [4] = experiment: Quantitative gene expression analysis (qPCR) of pro-inflammatory cytokines; type: in vivo; details: neocortex of α-syn-tg mice; 5 mg/kg IP daily for four weeks
Method: as §1
(§5) Total mRNA was extracted from mice frontal cortex using RNeasy Lipid mini kit (Qiagen, Germantown, Md.) and reverse transcribed using SuperScript VILO cDNA synthesis kit (Life Technologies), respectively. Quantitative real-time PCR was performed using TaqMan® Fast Advanced Master Mix (Life Technologies) according to manufacturer's instructions with gene specific primers obtained from Life Technologies, such as TNFα (Mm00443258_m1), IL6 (Mm00446190_m1), IL-1β (Mm00434228_m1), and β-actin (Mm00607939_s1). Amplification of DNA products was measured by the StepOnePlus real-time PCR system (Applied Biosystems, Carlsbad, Calif.). Relative mRNA levels were calculated according to the 2-exp (ΔΔCt) method. All ΔCT values were normalized to β-actin.
(§6) The levels of pro-inflammatory cytokines were analyzed using immunohistochemical analysis and gene expression analysis. The levels of TNFα, IL-1ß and IL6 were increased in α-syn-tg mice compared to non-tg mice. […] A positive interactive effect of HE treatment on the levels of TNFα (Finteraction (1, 16)=12.34, p=0.0029), IL-1β (Finteraction (1, 16)=11.58, p=0.0036), and IL6 (Finteraction (1, 16)=31.06, p<0.0001) was confirmed by two-way ANOVA. […] A positive interactive effect of HE treatment on the mRNA levels of TNFα (Finteraction (1, 16)=15.78, p=0.0019), IL-1β (Finteraction (1, 16)=11.65, p=0.0051), and IL6 (Finteraction (1, 16)=6.40, p=0.0264) was confirmed by two-way ANOVA.

α-syn-tg mice [5] = experiment: Immunohistochemical analysis of pro-inflammatory cytokines in a mouse model of PD; type: in vivo; details: neocortex of α-syn-tg mice; 5 mg/kg IP daily for four weeks
Method: as §1, §2
(§7) To determine the neuroinflammation, neurodegeneration, accumulation of α-synuclein, and NF-κB activation, brain sections were stained with Iba-1, GFAP, TNFα, IL-1β, IL6, human α-synuclein, NF-κB, and phosphorylated-NF-κB antibodies, respectively. Sections were imaged by Olympus BX41 microscope. All immunoreactivity levels were determined by optical density analysis using Image Quant 1.43 program (NIH) except the immunoreactivity of Iba-1. The cell numbers of Iba-1-positive cells were determined per field (230 μm×184 μm) of each animal based on cell body recognition using Image Quant 1.43 program (NIH).
as §6

α-syn-tg mice [6] = experiment: Immunohistochemical analysis of brain immune cells (Iba-1 microglia, GFAP astrocytes) in a mouse model of PD; type: in vivo; details: 5 mg/kg IP daily for four weeks
Method: as §1, §2, §7
FIGS. 1A-1F show analysis of the numbers of brain immune cells.
A positive interactive effect of HE treatment on Iba-1 optical density (Finteraction (1, 16)=80.48, p<0.0001), numbers of microglia branches (Finteraction (1, 16)=83.25, p<0.0001), GFAP optical density (Finteraction (1, 16)=15.88, p=0.0011), and numbers of astroglial branches (Finteraction (1, 16)=4.04, p=0.0616) was confirmed by two-way ANOVA.

NF-κB [7] = experiment: Immunofluorescence analysis of NF-κB and phosphorylated-NF-κB in neocortex; type: in vivo, mice; details: 5 mg/kg IP daily for four weeks
Method: as §1, §2, §3

α-synuclein mRNA = α-synuclein mRNA levels; type: in vivo, mice; details: model of PD
Method: as §1, §5
Intraneuronal accumulations of α-synuclein aggregates are typical pathological features of PD. […]

α-syn-tg mice [8] = experiment: Open field and round beam behavioral tests; type: in vivo; details: 5 mg/kg IP daily for four weeks
Method: as §1
Following treatment, the mice were assessed for gait and coordination using the open field and the round beam tests. Total activity was calculated as total beam breaks in ten minutes. The impairment of gait and balance were assessed by round beam analysis. Three consecutive trials of one minute each were run in one day. The numbers of foot slippages and distance traveled were recorded. The total errors on the beam were calculated as foot slips/distance traveled.
A positive interactive effect of HE treatment on the beam break numbers (Finteraction (1, 16)=15.61, p=0.0011) and total round beam errors (Finteraction (1, 16)=8.58, p=0.0098) was confirmed by two-way ANOVA.

α-synuclein [9] = experiment: Immunohistochemical and immunofluorescence analysis of α-synuclein accumulation in brain sections; type: in vivo, mice; details: 5 mg/kg IP daily for four weeks
Method: as §1, §2, §7
To determine whether the behavioral improvements observed in the α-syn-tg mice were related to alterations of α-synuclein pathology, immunohistochemical analysis was performed for α-synuclein with brain sections from non-tg and α-syn-tg mice treated with either vehicle or HE. […]
Immunofluorescence analysis of human α-synuclein in the frontal cortex of non-tg and α-syn-tg mice treated with either vehicle or hypoestoxide was performed. […] Additionally, fluorescence intensity against human α-synuclein was analyzed in frontal cortex of the brains. Immunoreactivity against human α-synuclein was not detected in the frontal cortex of non-tg mice, but it was highly detected in the frontal cortex of α-syn-tg mice. […]

[10] = frontal cortex of α-syn-tg mice

## C=C1C(=O)C[C@H]2C[C@@H]3O[C@@]3(C)CC[C@@H]3O[C@@]3(C)C[C@@H](OC(C)=O)[C@H]1C2(C)C [HE, hypoestoxide]
α-syn-tg mice [1]
  loss of TH-positive striatal fibers: significantly decreased
α-synuclein [2]
  levels of SDS-insoluble α-synuclein: significantly decreased
  levels of α-synuclein in SDS-soluble fractions: not affected
NF-κB [3]; cortex homogenates of non-tg and α-syn-tg mice
  total levels of NF-κB (western blot): not altered
NF-κB [3]; cortex homogenates of α-syn-tg mice, nuclear fractions
  level of phosphorylated NF-κB (western blot): significantly reduced
α-syn-tg mice [4]
  mRNA level of IL6: clearly decreased
  mRNA level of IL-1β: clearly decreased
  mRNA level of TNFα: clearly decreased
α-syn-tg mice [5]
  level of IL6 (immunohistochemical analysis): significantly reduced
  level of IL-1β (immunohistochemical analysis): significantly reduced
  level of TNFα (immunohistochemical analysis): significantly reduced
α-syn-tg mice [6]; neocortex of α-syn-tg mice
  levels of astrogliosis (GFAP): significantly decreased
  numbers of microglial cells (Iba-1-positive): significantly decreased
α-syn-tg mice [6]; α-syn-tg mice
  numbers of branches per glial cell: decreased
NF-κB [7]; neocortex of non-tg or α-syn-tg mice
  total levels of NF-κB (immunofluorescence): not changed
NF-κB [7]; neocortex of α-syn-tg mice
  level of phosphorylated-NF-κB (immunofluorescence): significantly decreased
α-synuclein mRNA
  levels of α-synuclein mRNA: not affected
α-syn-tg mice [8]
  beam break numbers (open field test): reduced these errors to levels observed in non-tg mice
  total round beam errors: reduced these errors to levels observed in non-tg mice
α-synuclein [9]; [10]
  immunoreactivity against C-terminus human α-synuclein: significantly decreased
  level of human α-synuclein immunoreactivity (immunofluorescence): significantly decreased
α-synuclein [9]; α-syn-tg mice, frontal cortex, hippocampus, striatum
  levels of α-synuclein in neurons and neuropil (immunohistochemical analysis): significantly decreased
